Patent publication US10077289B2, “Cyclosporins modified on the MeBmt sidechain by heterocyclic rings” (priority 2015, dated 2018)
Converted amounts (≈) assume the structure as drawn. Like-named read-outs stand apart in the source and are kept apart here.

Key:
[1] = molecular target: Human recombinant cyclophilin A (Cyp A) (Homo sapiens (Human), UniProt P62937); assay: Protease-free PPIase assay
Description: Protease-Free PPIase Assay
The protease-free PPIase assay measures the rate of cis to trans conversion of a peptide substrate catalyzed by the enzyme cyclophilin A. Addition of a cyclophilin A inhibitor (e.g., a test compound) slows the catalyzed rate and a Ki value is obtained.
35 mM HEPES pH 7.8, filtered through a 0.2 μm filter. 50 μM DTT was added prior to use each day and then the buffer was stored on ice.
Human recombinant cyclophilin A (Cyp A) (Sigma C3805) enzyme was diluted to 1 μM with enzyme dilution buffer (20 mM HEPES pH 7.8, 40% glycerol, 50 μM DTT and 1 μM BSA) and stored at −20° C.
Succinimide-Ala-Ala-Pro-Phe-p-nitroanilide (SUC-AAPF-pNA) (from Bachem AG, L-1400), 20 mg/ml prepared in 0.5 M LiCl in trifluoroethanol.
The temperature is monitored by the use of a temperature probe. To prevent UV degradation of test compounds, the light below 290 nm was blocked using a glass slide in the light path. 1.5 ml of the assay buffer was put into a 3 ml quartz cuvette and cooled to 10.0±0.1° C. while stirring (vigorous but not so fast as to produce cavitation). The inhibitor was diluted in 100% DMSO, and then added to the assay to a maximum final concentration of 0.5% DMSO in the assay. A blank spectrum was obtained, then 3 μL of enzyme was added (2 nM final concentration) and then 3 μL substrate (60 μM final concentration) added. The absorbance was measured at 330 nm for 300 s or 500 s for blank runs (NOTE: the substrate must be added in one quick injection and the measurements started immediately to minimize mixing errors).
A first order rate equation was fitted to the absorbance data, for each concentration of inhibitor, to obtain the rate constant (the first 10 to 15 seconds were excluded as mixing causes errors in this portion of curve). The catalytic rate was calculated from the enzymatic rate constant minus the background rate constant. An exponential curve was generated using the catalytic rate constants versus the inhibitor concentration to obtain the Ki value for the inhibitor. The Ki value is indicative of the binding affinity between the test compound and cyclophilin A.

[2] = molecular target: calcineurin/cyclophilin A (Homo sapiens (Human), UniProt P62937+P63098+Q08209); assay: Calcineurin Phosphatase (CaN) Assay (+CypA); format: biochemical
Text: Calcineurin Phosphatase (CaN) Assay
The calcineurin phosphatase assay is a means for estimating the immunosuppressive potential of a test compound. Calcineurin is a serine-threonine protein phosphatase that on activation dephosphorylates members of the nuclear factor of activated T cells (NFAT), which are important in T lymphocyte activation.
To investigate the immunosuppressive potential of exemplary compounds of Formula I, which are cyclosporin analogs, their ability to inhibit calcineurin activity was measured in the presence and absence of Cyp A.
The CaN assay kit used is based on a colorimetric assay for measuring calcineurin phosphatase activity, and it is commercially available (Enzo Life Sciences and Calbiochem). Calmodulin is also required for calcineurin activity and RII phosphopeptide is used as an efficient peptide substrate for calcineurin. […] The detection of free phosphate released is based on the classic Malachite green assay.
Enzo Life Sciences CaN Assay Kit: BML-AK804
Malachite Green: BIOMOL Green™ reagent
Calmodulin (Human, recombinant): was thawed on ice, diluted 1:50 with 2× assay buffer, and then stored on ice.
Calcineurin: was thawed quickly, stored on ice immediately, diluted 1:12.5 with 1× assay buffer, and then stored on ice.
R-II Substrate: 915 μL ultrapure water (UPW) was added to the 1.5 mg vial substrate to give a final concentration of 0.75 mM.
Inhibitors: 2.5 mM inhibitor in 100% DMSO.
Cyp A: recombinant human CypA (Sigma C3805), 1 mg/ml; Recombinant 6-His tagged CypA prepared by the University of Edinburgh was also used.
Inhibitor dilutions: inhibitor compounds were diluted in UPW in polypropylene low-binding 96 well plates at 5× the final assay concentration.
Assay Setup: using the half area 96 well plates supplied with the kit, 10 μl UPW was added to duplicate wells to provide the non-inhibited control. 10 μl of the inhibitor or the inhibitor/Cyp A complex was added to the appropriate sample wells. 25 μl of the 2× assay buffer with CaM was added to all wells, then 5 μl of CaN was added to all wells (40 U per well final concentration) except duplicate ‘no calcineurin blank’ wells to which 5 μL 1× assay buffer was added. The assay plate was placed in an oven at 30° C. for 15 minutes to equilibrate to the reaction temperature. The reaction was started by the addition of 10 μl RII-peptide (0.15 mM final concentration). The reaction was allowed to proceed at 30° C. for a time period in which the reaction is linear for about 60 minutes. The reaction was then terminated by adding 100 μl of the Malachite Green reagent. The color was allowed to develop for 15-30 minutes at room temperature before the absorbance at 620 nm was measured using a plate reader (Molecular Devices—SpectraMax M5). The data were analyzed by subtracting ‘no Calcineurin blank’ from all the absorbance readings and plotting the background corrected absorbances against Log10 inhibitor concentration. A sigmoidal-dose response curve was fitted to the data using GraphPad Prism Software.
It exerts its immunosuppressive activity by binding to cyclophilin A to form a complex, which then binds to calcineurin and thereby inhibits calcineurin activity.

[3] = Water Solubility Assay (measured in pH 7.8 buffer); format: physicochemical; conditions: 25 °C, kinetic from dmso stock
Description: Water Solubility Assay (Measured in pH 7.8 Buffer)
The aqueous solubility of a compound of Formula I in buffer (pH 7.8) was measured by recording the onset of precipitation of the compound as a function of increasing concentration. The onset of precipitation, if it occurred, was detected by an increase in absorbance at 650 nm.
Assay Buffer: 35 mM HEPES pH 7.8
Stock solutions of Control and Test Compounds: 10 mM in 100% DMSO.
10 mM stock solutions of control and test compounds were prepared in 100% DMSO.
Assay buffer (247.5 μl) was placed into flat bottomed transparent 96-well plate. For blank samples DMSO (2.5 μl) was added. For test and control samples 2.5 μl of the appropriate DMSO dilution stocks were added to the appropriate well. All test and control compounds were performed in triplicate.
The plates were sealed with adhesive plate seal and shaken at 250 rpm at 25° C. for 18 h on a plate shaker. After incubation the plate seals were taken off and any bubbles observed in wells removed. The plates were read on a SpectraMaxM5 with a 5 s pre-shake at 650 nm. Data files were transferred to the appropriate worksheet and the solubility range of the compounds was calculated from the data. The values shown in the Tables indicate the concentration in μM (micromolar) at which the compound remains in solution.

[4] = in the presence of Cyp A, 1:1 complex with inhibitor, read-out: Calcineurin Phosphatase (CaN) Assay (+CypA) IC50
[5] = read-out: Protease-free PPIase Assay Ki, human recombinant Cyp A, 10 °C
[6] = 35 mM HEPES buffer pH 7.8, aqueous buffer, 35 mM HEPES pH 7.8, 1% DMSO, 18 h, read-out: Water Solubility Assay, concentration at which the compound remains in solution

SMILES	Ki [1]	IC50 [2, 4]	solubility at 18 h ([3]; pH 7.8, aqueous buffer)	Ki [1, 5]	IC50 [2]	solubility at 18 h [3, 6]
CC[C@H]1NC(=O)[C@@H]([C@H](O)[C@H](C)Cc2nccn2C)N(C)C(=O)[C@@H](C(C)C)N(C)C(=O)[C@@H](CC(C)C)N(C)C(=O)[C@@H](CC(C)C)N(C)C(=O)[C@H](C)NC(=O)[C@@H](C)NC(=O)[C@@H](CC(C)C)N(C)C(=O)[C@@H](C(C)C)NC(=O)[C@H](CC(C)C)N(C)C(=O)[C@@H](C)N(C)C1=O [Compound 1, [(2S,3R,4R)-3-Hydroxy-4-methyl-2-(methylamino)-5-(1-methyl-1H-imidazol-2-yl)-pentanoic acid]^1 [(R)-methyl-Sar]^3 cyclosporin A]	0.015 µM	2.7 µM	75 to 100 µM (≈ 94.3 to 126 µg/mL)			
CC[C@H]1NC(=O)[C@@H]([C@H](O)[C@H](C)Cc2nccn2CCN2CCOCC2)N(C)C(=O)[C@@H](C(C)C)N(C)C(=O)[C@@H](CC(C)C)N(C)C(=O)[C@@H](CC(C)C)N(C)C(=O)[C@H](C)NC(=O)[C@@H](C)NC(=O)[C@@H](CC(C)C)N(C)C(=O)[C@@H](C(C)C)NC(=O)[C@H](CC(C)C)N(C)C(=O)[C@@H](C)N(C)C1=O [Compound 2, [(2S,3R,4R)-3-Hydroxy-4-methyl-2-(methylamino)-5-(1-(N-morpholino-ethyl)-1H-imidazol-2-yl)-pentanoic acid]^1 [(R)-methyl-Sar]^3 cyclosporin A]				0.0046 µM	> 10 µM	> 100 µM
CC[C@H]1NC(=O)[C@@H]([C@H](O)[C@H](C)Cc2nccn2CCN2CCCC2)N(C)C(=O)[C@@H](C(C)C)N(C)C(=O)[C@@H](CC(C)C)N(C)C(=O)[C@@H](CC(C)C)N(C)C(=O)[C@H](C)NC(=O)[C@@H](C)NC(=O)[C@@H](CC(C)C)N(C)C(=O)[C@@H](C(C)C)NC(=O)[C@H](CC(C)C)N(C)C(=O)[C@@H](C)N(C)C1=O [Compound 3, [(2S,3R,4R)-3-Hydroxy-4-methyl-2-(methylamino)-5-(1-(N-pyrrolidinyl-ethyl)-1H-imidazol-2-yl)pentanoic acid]^1 [(R)-methyl-Sar]^3 cyclosporin A]		> 10 µM		0.0086 µM		> 100 µM
CC[C@H]1NC(=O)[C@@H]([C@H](O)[C@H](C)Cc2nccn2CCN(C)C)N(C)C(=O)[C@@H](C(C)C)N(C)C(=O)[C@@H](CC(C)C)N(C)C(=O)[C@@H](CC(C)C)N(C)C(=O)[C@H](C)NC(=O)[C@@H](C)NC(=O)[C@@H](CC(C)C)N(C)C(=O)[C@@H](C(C)C)NC(=O)[C@H](CC(C)C)N(C)C(=O)[C@@H](C)N(C)C1=O [Compound 4, [(2S,3R,4R)-5-(1-(N,N-Dimethyl-ethyl)-1H-imidazol-2-yl)-3-hydroxy-4-methyl-2-(methylamino)pentanoic acid]^1 [(R)-methyl-Sar]^3 cyclosporin A]		6.9 µM		0.0051 µM		> 100 µM
CC[C@H]1NC(=O)[C@@H]([C@H](O)[C@H](C)Cc2nccn2CCC(F)(F)F)N(C)C(=O)[C@@H](C(C)C)N(C)C(=O)[C@@H](CC(C)C)N(C)C(=O)[C@@H](CC(C)C)N(C)C(=O)[C@H](C)NC(=O)[C@@H](C)NC(=O)[C@@H](CC(C)C)N(C)C(=O)[C@@H](C(C)C)NC(=O)[C@H](CC(C)C)N(C)C(=O)[C@@H](C)N(C)C1=O [Compound 8, [(2S,3R,4R)-3-Hydroxy-4-methyl-2-(methylamino)-5-[3-(3,3,3-trifluoro-propyl)-3H-imidazol-2-yl]-pentanoic acid]^1 [(R)-methyl-Sar]^3 cyclosporin A]		> 10 µM		0.0074 µM		
CC[C@H]1NC(=O)[C@@H]([C@H](O)[C@H](C)Cc2nc3ccccc3[nH]2)N(C)C(=O)[C@@H](C(C)C)N(C)C(=O)[C@@H](CC(C)C)N(C)C(=O)[C@@H](CC(C)C)N(C)C(=O)[C@H](C)NC(=O)[C@@H](C)NC(=O)[C@@H](CC(C)C)N(C)C(=O)[C@@H](C(C)C)NC(=O)[C@H](CC(C)C)N(C)C(=O)CN(C)C1=O [Compound 10, [(2S,3R,4R)-1-(1H-Benzimidazol-2-yl)-3-hydroxy-4-methyl-2-(methylamino)pentanoic acid]^1 cyclosporin A]			25 to 50 µM (≈ 32 to 63.9 µg/mL)			
CC[C@H]1NC(=O)[C@@H]([C@H](O)[C@H](C)CCCc2ccc(F)cn2)N(C)C(=O)[C@@H](C(C)C)N(C)C(=O)[C@@H](CC(C)C)N(C)C(=O)[C@@H](CC(C)C)N(C)C(=O)[C@H](C)NC(=O)[C@@H](C)NC(=O)[C@@H](CC(C)C)N(C)C(=O)[C@@H](C(C)C)NC(=O)[C@H](CC(C)C)N(C)C(=O)[C@@H](C)N(C)C1=O [Compound 14, [(2S,3R,4R)-7-(5-Fluoro-pyridin-2-yl)-3-hydroxy-4-methyl-2-(methylamino)-heptanoic acid]^1 [(R)-methyl-Sar]^3 cyclosporin A]	0.0015 µM	8.75 µM				
CC[C@H]1NC(=O)[C@@H]([C@H](O)[C@H](C)CCCc2cn3c(n2)CCCC3)N(C)C(=O)[C@@H](C(C)C)N(C)C(=O)[C@@H](CC(C)C)N(C)C(=O)[C@@H](CC(C)C)N(C)C(=O)[C@H](C)NC(=O)[C@@H](C)NC(=O)[C@@H](CC(C)C)N(C)C(=O)[C@@H](C(C)C)NC(=O)[C@H](CC(C)C)N(C)C(=O)[C@@H](C)N(C)C1=O [Compound 19]				0.0054 µM	> 10 µM	
CC[C@H]1NC(=O)[C@@H]([C@H](O)[C@H](C)CCCc2ncco2)N(C)C(=O)[C@@H](C(C)C)N(C)C(=O)[C@@H](CC(C)C)N(C)C(=O)[C@@H](CC(C)C)N(C)C(=O)[C@H](C)NC(=O)[C@@H](C)NC(=O)[C@@H](CC(C)C)N(C)C(=O)[C@@H](C(C)C)NC(=O)[C@H](CC(C)C)N(C)C(=O)[C@@H](C)N(C)C1=O [Compound 24]			> 100 µM			
